Source: patent US20230085307A1, “PYRIDAZINONE COMPOUND AND HERBICIDE” (NISSAN CHEMICAL CORPORATION, priority 2019, published 2023)

Columns and labels:
lambsquarters [1] = assay: Test Example 5: herbicidal effect by foliage application, plastic box (Table 20, symbol O); type: in vivo, lambsquarters (Chenopodium album); conditions: foliage application, 320 g/ha, three weeks after application
Method in brief: (§1)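 Plants were sown into sterilized diluvial soil under about 1.5 cm cover and kept in a greenhouse at 25° C. to 30° C. Fourteen days on, foliage received an even spray of the diluted emulsion. Herbicidal or crop effect was judged three weeks afterwards.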

Italian ryegrass [2] = assay: Test Example 4: herbicidal effect by soil treatment (Table 19, symbol K); type: in vivo, Italian ryegrass (Lolium multiflorum); conditions: amount of applied herbicide 320 g/ha
Method in brief: (§2)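 Pre-emergence style soil spray: seeds under ~1.5 cm sterilized diluvial soil received a uniform coat of emulsion diluted to the predetermined herbicide amount. Greenhouse 25–30° C; readout at week three on previously defined criteria.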

redroot pigweed [3] = assay: Test Example 4: herbicidal effect by soil treatment (Table 19, symbol N); type: in vivo, redroot pigweed (Amaranthus retroflexus); conditions: amount of applied herbicide 320 g/ha
Method in brief: as §2

windgrass [4] = assay: Test Example 5: herbicidal effect by foliage application, plastic box (Table 20, symbol L); type: in vivo, windgrass (Apera spica-venti); conditions: foliage application, 320 g/ha, three weeks after application
Method in brief: as §1

persian speedwell [5] = assay: Test Example 4: herbicidal effect by soil treatment (Table 19, symbol R); type: in vivo, Persian speedwell (Veronica persica); conditions: amount of applied herbicide 320 g/ha
Method in brief: as §2

barnyard grass [6] = assay: Test Example 5: herbicidal effect by foliage application, plastic box (Table 20, symbol H); type: in vivo, barnyard grass (Echinochloa crus-galli); conditions: foliage application, 320 g/ha, three weeks after application
Method in brief: as §1

wild oat [7] = assay: Test Example 4: herbicidal effect by soil treatment (Table 19, symbol I); type: in vivo, wild oat (Avena fatua); conditions: amount of applied herbicide 320 g/ha
Method in brief: as §2

wild oat [8] = assay: Test Example 5: herbicidal effect by foliage application, plastic box (Table 20, symbol I); type: in vivo, wild oat (Avena fatua); conditions: foliage application, 320 g/ha, three weeks after application
Method in brief: as §1

barnyard grass [9] = assay: Test Example 3: herbicidal effect by foliage application, Wagner pot (Table 18, symbol H); type: in vivo, barnyard grass (Echinochloa crus-galli); conditions: 320 g/ha
Method in brief: (§3)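 Plants were sown in alluvial soil held under 0.1–0.5 cm standing water and grown 14 days in a greenhouse at 25–30 °C. An emulsifiable formulation, water-diluted to the set dose, was then sprayed onto the foliage, and effects were scored three weeks later using previously defined criteria.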

Italian ryegrass [10] = assay: Test Example 5: herbicidal effect by foliage application, plastic box (Table 20, symbol K); type: in vivo, Italian ryegrass (Lolium multiflorum); conditions: foliage application, 320 g/ha, three weeks after application
Method in brief: as §1

redroot pigweed [11] = assay: Test Example 5: herbicidal effect by foliage application, plastic box (Table 20, symbol N); type: in vivo, redroot pigweed (Amaranthus retroflexus); conditions: foliage application, 320 g/ha, three weeks after application
Method in brief: as §1

barnyard grass [12] = assay: Test Example 4: herbicidal effect by soil treatment (Table 19, symbol H); type: in vivo, barnyard grass (Echinochloa crus-galli); conditions: amount of applied herbicide 320 g/ha
Method in brief: as §2

blackgrass [13] = assay: Test Example 5: herbicidal effect by foliage application, plastic box (Table 20, symbol J); type: in vivo, blackgrass (Alopecurus myosuroides); conditions: foliage application, 320 g/ha, three weeks after application
Method in brief: as §1

Chinese sprangletop = assay: Test Example 3: herbicidal effect by foliage application, Wagner pot (Table 18, symbol D); type: in vivo, chinese sprangletop (Leptochloa chinensis); conditions: 320 g/ha
Method in brief: as §3

green foxtail [14] = assay: Test Example 4: herbicidal effect by soil treatment (Table 19, symbol G); type: in vivo, green foxtail (Setaria viridis); conditions: amount of applied herbicide 320 g/ha
Method in brief: as §2

velvetleaf [15] = assay: Test Example 4: herbicidal effect by soil treatment (Table 19, symbol M); type: in vivo, velvetleaf (Abutilon theophrasti); conditions: amount of applied herbicide 320 g/ha
Method in brief: as §2

rice flat sedge = assay: Test Example 3: herbicidal effect by foliage application, Wagner pot (Table 18, symbol E); type: in vivo, rice flat sedge (Cyperus iria); conditions: 320 g/ha
Method in brief: as §3

windgrass [16] = assay: Test Example 4: herbicidal effect by soil treatment (Table 19, symbol L); type: in vivo, windgrass (Apera spica-venti); conditions: amount of applied herbicide 320 g/ha
Method in brief: as §2

velvetleaf [17] = assay: Test Example 5: herbicidal effect by foliage application, plastic box (Table 20, symbol M); type: in vivo, velvetleaf (Abutilon theophrasti); conditions: foliage application, 320 g/ha, three weeks after application
Method in brief: as §1

southern crabgrass [18] = assay: Test Example 4: herbicidal effect by soil treatment (Table 19, symbol F); type: in vivo, southern crabgrass (Digitaria ciliaris); conditions: amount of applied herbicide 320 g/ha
Method in brief: as §2

lambsquarters [19] = assay: Test Example 4: herbicidal effect by soil treatment (Table 19, symbol O); type: in vivo, lambsquarters (Chenopodium album); conditions: amount of applied herbicide 320 g/ha
Method in brief: as §2

false cleavers [20] = assay: Test Example 4: herbicidal effect by soil treatment (Table 19, symbol Q); type: in vivo, false cleavers (Galium spurium); conditions: amount of applied herbicide 320 g/ha
Method in brief: as §2

persian speedwell [21] = assay: Test Example 5: herbicidal effect by foliage application, plastic box (Table 20, symbol R); type: in vivo, Persian speedwell (Veronica persica); conditions: foliage application, 320 g/ha, three weeks after application
Method in brief: as §1

southern crabgrass [22] = assay: Test Example 5: herbicidal effect by foliage application, plastic box (Table 20, symbol F); type: in vivo, southern crabgrass (Digitaria ciliaris); conditions: foliage application, 320 g/ha, three weeks after application
Method in brief: as §1

green foxtail [23] = assay: Test Example 5: herbicidal effect by foliage application, plastic box (Table 20, symbol G); type: in vivo, green foxtail (Setaria viridis); conditions: foliage application, 320 g/ha, three weeks after application
Method in brief: as §1

chickweed [24] = assay: Test Example 5: herbicidal effect by foliage application, plastic box (Table 20, symbol P); type: in vivo, common chickweed (Stellaria media); conditions: foliage application, 320 g/ha, three weeks after application
Method in brief: as §1

blackgrass [25] = assay: Test Example 4: herbicidal effect by soil treatment (Table 19, symbol J); type: in vivo, blackgrass (Alopecurus myosuroides); conditions: amount of applied herbicide 320 g/ha
Method in brief: as §2

chickweed [26] = assay: Test Example 4: herbicidal effect by soil treatment (Table 19, symbol P); type: in vivo, common chickweed (Stellaria media); conditions: amount of applied herbicide 320 g/ha
Method in brief: as §2

false cleavers [27] = assay: Test Example 5: herbicidal effect by foliage application, plastic box (Table 20, symbol Q); type: in vivo, false cleavers (Galium spurium); conditions: foliage application, 320 g/ha, three weeks after application
Method in brief: as §1

Compound	herbicidal effect grade, O: lambsquarters (lambsquarters [1])	herbicidal effect rating, K: Italian ryegrass (Italian ryegrass [2])	herbicidal effect rating, N: redroot pigweed (redroot pigweed [3])	herbicidal effect grade, L: windgrass (windgrass [4])	herbicidal effect rating, R: persian speedwell (persian speedwell [5])	herbicidal effect grade, H: barnyard grass (barnyard grass [6])	herbicidal effect rating, I: wild oat (wild oat [7])	herbicidal effect grade, I: wild oat (wild oat [8])	herbicidal effect on H (barnyard grass), rating 0-5 (barnyard grass [9])	herbicidal effect grade, K: Italian ryegrass (Italian ryegrass [10])	herbicidal effect grade, N: redroot pigweed (redroot pigweed [11])	herbicidal effect rating, H: barnyard grass (barnyard grass [12])	herbicidal effect grade, J: blackgrass (blackgrass [13])	herbicidal effect on D (Chinese sprangletop), rating 0-5 (Chinese sprangletop)	herbicidal effect rating, G: green foxtail (green foxtail [14])	herbicidal effect rating, M: velvetleaf (velvetleaf [15])	herbicidal effect on E (rice flat sedge), rating 0-5 (rice flat sedge)	herbicidal effect rating, L: windgrass (windgrass [16])	herbicidal effect grade, M: velvetleaf (velvetleaf [17])	herbicidal effect rating, F: southern crabgrass (southern crabgrass [18])	further results
CCCCOc1ccccc1-c1sc2ccccc2c1-c1c(OC(=O)CCC)c(C)nn(C)c1=O [1-023]	0 (Herbicidal rate of 5% or less (almost no effect))	0 (Herbicidal rate of 5% or less (almost no effect))	0 (Herbicidal rate of 5% or less (almost no effect))	0 (Herbicidal rate of 5% or less (almost no effect))	0 (Herbicidal rate of 5% or less (almost no effect))	0 (Herbicidal rate of 5% or less (almost no effect))	0 (Herbicidal rate of 5% or less (almost no effect))	0 (Herbicidal rate of 5% or less (almost no effect))	1 (Herbicidal rate of 5% or more and less than 20%)	0 (Herbicidal rate of 5% or less (almost no effect))	0 (Herbicidal rate of 5% or less (almost no effect))	0 (Herbicidal rate of 5% or less (almost no effect))	0 (Herbicidal rate of 5% or less (almost no effect))	0 (Herbicidal rate of 5% or less (almost no effect))	2 (Herbicidal rate of 20% or more and less than 40%)	0 (Herbicidal rate of 5% or less (almost no effect))	3 (Herbicidal rate of 40% or more and less than 70%)	0 (Herbicidal rate of 5% or less (almost no effect))	0 (Herbicidal rate of 5% or less (almost no effect))	0 (Herbicidal rate of 5% or less (almost no effect))	herbicidal effect rating, O: lambsquarters (lambsquarters [19]): 0 (Herbicidal rate of 5% or less (almost no effect)); herbicidal effect rating, Q: false cleavers (false cleavers [20]): 0 (Herbicidal rate of 5% or less (almost no effect)); herbicidal effect grade, R: persian speedwell (persian speedwell [21]): 3 (Herbicidal rate of 40% or more and less than 70%); herbicidal effect grade, F: southern crabgrass (southern crabgrass [22]): 0 (Herbicidal rate of 5% or less (almost no effect)); herbicidal effect grade, G: green foxtail (green foxtail [23]): 0 (Herbicidal rate of 5% or less (almost no effect)); herbicidal effect grade, P: chickweed (chickweed [24]): 5 (Herbicidal rate of 90% or more (almost completely withered)); herbicidal effect rating, J: blackgrass (blackgrass [25]): 0 (Herbicidal rate of 5% or less (almost no effect)); herbicidal effect rating, P: chickweed (chickweed [26]): 0 (Herbicidal rate of 5% or less (almost no effect)); herbicidal effect grade, Q: false cleavers (false cleavers [27]): 2 (Herbicidal rate of 20% or more and less than 40%)
CON=C(C)c1ccc(-c2sc3ccccc3c2-c2c(O)c(C)nn(C)c2=O)cc1 [1-043]	4 (Herbicidal rate of 70% or more and less than 90%)	5 (Herbicidal rate of 90% or more (almost completely withered))	5 (Herbicidal rate of 90% or more (almost completely withered))	1 (Herbicidal rate of 5% or more and less than 20%)	4 (Herbicidal rate of 70% or more and less than 90%)	3 (Herbicidal rate of 40% or more and less than 70%)	0 (Herbicidal rate of 5% or less (almost no effect))	2 (Herbicidal rate of 20% or more and less than 40%)	5 (Herbicidal rate of 90% or more (almost completely withered))	5 (Herbicidal rate of 90% or more (almost completely withered))	5 (Herbicidal rate of 90% or more (almost completely withered))	3 (Herbicidal rate of 40% or more and less than 70%)	4 (Herbicidal rate of 70% or more and less than 90%)	5 (Herbicidal rate of 90% or more (almost completely withered))	5 (Herbicidal rate of 90% or more (almost completely withered))	0 (Herbicidal rate of 5% or less (almost no effect))	0 (Herbicidal rate of 5% or less (almost no effect))	0 (Herbicidal rate of 5% or less (almost no effect))	5 (Herbicidal rate of 90% or more (almost completely withered))	0 (Herbicidal rate of 5% or less (almost no effect))	herbicidal effect rating, O: lambsquarters (lambsquarters [19]): 5 (Herbicidal rate of 90% or more (almost completely withered)); herbicidal effect rating, Q: false cleavers (false cleavers [20]): 0 (Herbicidal rate of 5% or less (almost no effect)); herbicidal effect grade, R: persian speedwell (persian speedwell [21]): 5 (Herbicidal rate of 90% or more (almost completely withered)); herbicidal effect grade, F: southern crabgrass (southern crabgrass [22]): 4 (Herbicidal rate of 70% or more and less than 90%); herbicidal effect grade, G: green foxtail (green foxtail [23]): 4 (Herbicidal rate of 70% or more and less than 90%); herbicidal effect grade, P: chickweed (chickweed [24]): 5 (Herbicidal rate of 90% or more (almost completely withered)); herbicidal effect rating, J: blackgrass (blackgrass [25]): 0 (Herbicidal rate of 5% or less (almost no effect)); herbicidal effect rating, P: chickweed (chickweed [26]): 4 (Herbicidal rate of 70% or more and less than 90%); herbicidal effect grade, Q: false cleavers (false cleavers [27]): 2 (Herbicidal rate of 20% or more and less than 40%)
